Blank lines part the entries; values can stand above or below the compound they belong to.
Tests used:
Format in all cases: physicochemical
[1] = Stability of solvents in contact with lactic acid feed solution, gas chromatography (Example 6); details: 60° C.
Protocol: This experiment was conducted to compare the stability of two solvents, MIBK and Isoamyl alcohol in contact with the lactic acid feed solution as prepared in example 1. For each solvent a closed glass reactor was filled with 20 g of solvent and 20 g of the lactic acid feed solution, put in an oven to maintain a temperature of 60° C. and shaken continuously.
After 3 hrs, 24 hrs (1 day) and 168 hrs (1 week) the shaking was stopped for 1 hour to allow the phases to settle, a sample was taken from the solvent top layer, and the composition of the solvent top layer analyzed by gas chromatography.

[2] = Lactic acid distribution ratio MIBK/aqueous MgCl2 solution (Example 7); details: initial lactic acid 20 wt %
From the text: Forward extraction and back extraction as used in the method of the invention are based on the difference in solubility of the lactic acid in water and the organic solvent at different temperatures. The solubility of a compound in one solvent relative to another solvent can be expressed in terms of the distribution ratio (DR). This ratio gives an indication how a compound will be distributed over the aqueous phase (e.g. the aqueous mixture) and the organic phase (e.g. the organic liquid) in a two-phase system at equilibrium. The distribution ratio may be defined as the ratio of the lactic acid concentration dissolved in the organic phase ([lactic acid]organic) over the concentration of the lactic acid dissolved in water ([lactic acid]water) provided that the two phases are in equilibrium with each other: DR=[lactic acid]organic/[lactic acid]water(1)
The resulting two phase system was stirred at 20° C. or 60° C. for 30 minutes with sufficient speed to ensure that both phases are well dispersed. Hereafter, the stirring is stopped, the phases were allowed to separate and samples were taken from both phases. The concentration of lactic acid (wt %) in these samples was determined by potentiometric titration. Hereafter the distribution ratio was calculated as the ratio of the lactic acid concentration (wt %) in the MIBK organic solvent phase divided by the lactic acid concentration (wt %) in the aqueous phase.

[3] = MIBK solubility in aqueous MgCl2 solution, gas chromatography (Example 8); details: aqueous phase
Protocol: Hereafter, the stirring is stopped, the phases were allowed to separate and a sample was taken from the aqueous bottom phase. The concentration of MIBK in this sample was determined by gas chromatography.

- isoamyllactate concentration ([1]; 24 hrs and 168 hrs samples): 22.5 area %
- isoamyllactate formed ([1]; after 3 hrs, GC of solvent top layer): 14.6 area %
SMILES: CC(C)CCO [isoamyl alcohol]

- Lactic acid distribution ratio ([2]; MgCl2 0 wt %, 20° C.): 0.16 wt %/wt %
- Lactic acid distribution ratio ([2]; MgCl2 0 wt %, 60° C.): 0.19 wt %/wt %
- Lactic acid distribution ratio ([2]; MgCl2 10.5 wt %, 20° C.): 0.33 wt %/wt %
- Lactic acid distribution ratio ([2]; MgCl2 10.5 wt %, 60° C.): 0.37 wt %/wt %
- Lactic acid distribution ratio ([2]; MgCl2 16.0 wt %, 20° C.): 0.49 wt %/wt %
- Lactic acid distribution ratio ([2]; MgCl2 16.0 wt %, 60° C.): 0.56 wt %/wt %
SMILES: CC(O)C(=O)O (stereo not drawn) [lactic acid]

- MIBK solubility ([3]; MgCl2 0 wt %, 20° C.): 1.8 wt %
- MIBK solubility ([3]; MgCl2 0 wt %, 60° C.): 1.4 wt %
- MIBK solubility ([3]; MgCl2 15 wt %, 20° C.): 0.48 wt %
- MIBK solubility ([3]; MgCl2 15 wt %, 60° C.): 0.20 wt %
- MIBK solubility ([3]; MgCl2 30 wt %, 20° C.): 0.17 wt %
- MIBK solubility ([3]; MgCl2 30 wt %, 60° C.): 0.11 wt %
SMILES: CC(=O)CC(C)C [MIBK, methyl-isobutyl-ketone]
- changes in purity of the solvent ([1]; after 168 hrs, GC of solvent top layer): no changes in the purity of the MIBK could be detected
